From paper PMC10073293, “Discovery of IHMT-MST1-39 as a novel MST1 kinase inhibitor and AMPK activator for the treatment of diabetes mellitus” (Signal Transduction and Targeted Therapy, 2023) come the findings set out here.

For one experiment, the target named is T1, MST2 (Homo sapiens, UniProt Q13188).
T1 construct: gene STK3
T1 sequence (Q13188 1-491): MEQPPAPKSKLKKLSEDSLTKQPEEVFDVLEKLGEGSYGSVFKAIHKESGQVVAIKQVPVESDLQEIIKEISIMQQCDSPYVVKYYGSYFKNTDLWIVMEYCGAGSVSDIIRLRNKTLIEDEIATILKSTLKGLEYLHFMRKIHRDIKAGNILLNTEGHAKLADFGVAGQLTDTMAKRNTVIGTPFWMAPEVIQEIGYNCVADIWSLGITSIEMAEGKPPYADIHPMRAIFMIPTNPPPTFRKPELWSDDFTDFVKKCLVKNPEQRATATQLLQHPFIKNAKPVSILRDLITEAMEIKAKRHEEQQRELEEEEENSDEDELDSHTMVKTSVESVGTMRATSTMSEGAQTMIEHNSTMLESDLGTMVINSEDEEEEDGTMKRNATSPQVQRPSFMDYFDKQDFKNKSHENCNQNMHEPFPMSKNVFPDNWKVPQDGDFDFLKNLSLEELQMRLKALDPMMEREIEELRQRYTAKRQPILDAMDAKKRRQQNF
Briefly: biochemical kinase assay; KD also determined (Fig. 1c, d); KINOMEscan binding.

Experiment [1] addresses T2, MST1 (mammalian sterile 20-like kinase 1) (Homo sapiens, UniProt Q13043).
T2 construct: gene STK4

T2 sequence (Q13043 whole entry): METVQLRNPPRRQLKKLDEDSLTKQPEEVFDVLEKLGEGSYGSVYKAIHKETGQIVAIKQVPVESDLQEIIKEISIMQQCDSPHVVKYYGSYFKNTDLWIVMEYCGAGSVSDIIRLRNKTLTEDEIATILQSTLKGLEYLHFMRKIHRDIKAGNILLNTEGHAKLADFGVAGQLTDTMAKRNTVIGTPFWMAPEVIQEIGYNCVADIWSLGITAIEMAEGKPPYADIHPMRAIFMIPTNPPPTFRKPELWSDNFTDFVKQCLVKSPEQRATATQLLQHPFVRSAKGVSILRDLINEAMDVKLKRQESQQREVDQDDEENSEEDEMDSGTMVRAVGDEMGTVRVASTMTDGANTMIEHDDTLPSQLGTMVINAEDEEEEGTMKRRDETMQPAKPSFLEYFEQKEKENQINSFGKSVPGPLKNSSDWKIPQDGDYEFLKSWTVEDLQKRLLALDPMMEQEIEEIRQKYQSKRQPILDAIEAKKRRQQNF

As a reminder, the IC50 is the concentration at which inhibition is half-maximal. With `CN1C(=O)C(c2c(F)cccc2F)N(C)c2nc(Nc3ccc(S(N)(=O)=O)cc3)ncc21` (centres unmarked) [IHMT-MST1-39], the IC50 was determined as 109 nM on MST2 and 42 nM in experiment [1].
